From US20250288587A1, “Methods of Treating Fibrosis” (Athira Pharma, Inc., priority 2022, published 2025)

Key:
CFA-stimulated rats [1] = test: CFA inflammatory pain model, thermal hyperalgesia (Hargreaves method); assay type: in vivo; parameters: key to Thermal Hyperalgesia, change in sensitivity compared to CFA alone / Thermal Hyperalgesia, significant reduction in pain behavior vs CFA alone: NS = no statistically significant change in sensitivity compared to CFA alone; + = statistically significant change in sensitivity compared to CFA alone, p < 0.05
Description: (§1) Response to peripheral inflammatory stimulus can be modeled by administering complete Freund's adjuvant (CFA), a suspension of desiccated mycobacterium in paraffin oil and mannide monooleate, by subcutaneous injection into the rat's footpad. The introduction of CFA to peripheral tissues leads to a rapid, sustained, inflammatory reaction in the treated tissue within 24 hours. Subcutaneous administration of CFA in the plantar region of the paw induces inflammatory pain behaviors that persist for at least 8 days. CFA treatment also leads to the accumulation of inflammatory cytokines in paw tissue at the site of injury, which, if unresolved, can lead to formation of fibrotic tissue. The extent of inflammatory response to CFA can be assessed by quantification of inflammatory cytokines in paw skin lysate, and inflammatory pain behaviors by mechanical allodynia (von Frey test) and thermal hyperalgesia (Hargreaves test).
(§2) In one study, Compound 2a was tested for its ability to reduce inflammatory pain behaviors in the CFA inflammation model. On study day 0, […] of CFA was administered subcutaneously in the plantar of the right hind paw. Animals were treated daily with Compound 2a in solution via oral gavage (PO) at doses of 1, 0.1, and 0.025 mg/kg. Treatment began before CFA injection on study day −1 and continued through study day 8.
Thermal hyperalgesia was measured using the Hargreaves method. A temperature ramp was applied to the right hind paw and the paw withdrawal latency (PWL) was recorded as a measure of sensitivity to thermal stimulation. […] Statistical analysis was performed using a 1-way ANOVA with Tukey post-test. A p-value below 0.05 was considered statistically significant.
(§3) In another study, Compounds 1a, 5a, and 6a were similarly tested against CFA-induced inflammatory stimulation in the right hind foot for their ability to reduce pain behaviors. This study also included quantification of inflammatory cytokine expression in paw skin lysate. Inflammatory pain stimulation with CFA injection and assessment of mechanical and thermal pain behaviors were performed as described above, with the exception that only post-dose pain behavior testing is reported.
(§4) Intraplantar CFA injection occurred at day 0. Treatment with Compounds 1a, 5a, and 6a occurred at days −2, 1, 3, and 7. At day 8, the rats were terminated and cytokine levels were measured in paw skin and plasma. Tissue from paw bone, joint, and muscle were obtained for H&E staining and analysis. Cytokine levels in test compound-treated animals were compared to CFA-stimulated animals. Analytes included interleukin 4 (IL-4), tumor necrosis factor alpha (TNF-α) and interferon gamma (IFN-γ). Statistical analysis consisted of 1-way ANOVA followed by Dunnett's multiple comparisons post-test. Mechanical allodynia and thermal hyperalgesia were tested 1 hour post-dosing on days 1, 3, and 7. PWT refers to […] paw withdrawal threshold where a higher value corresponds to a higher pain threshold. PWL refers to […] paw withdrawal latency where a higher value corresponds to a higher pain threshold.

CFA-stimulated rats [2] = test: CFA inflammatory pain model, mechanical allodynia (von Frey test); assay type: in vivo; parameters: key to Mechanical Allodynia, change in sensitivity compared to CFA alone / Mechanical Allodynia, significant reduction in pain behavior vs CFA alone: NS = no statistically significant change in sensitivity compared to CFA alone; + = statistically significant change in sensitivity compared to CFA alone, p < 0.05
Description: as §1, §2
Mechanical allodynia was measured using the von Frey test. In this test, rats were placed on a wire mesh and a series of filaments designed to deliver probing force ranging from 4 to 26 grams were applied to the mid-plantar surface of the right hind paw. Animals indicated pain response by lifting the probed paw. The minimal force required to elicit the withdrawal response was recorded as the paw withdrawal threshold (PWT). Von Frey testing was performed 1 hour after Compound 2a dosing on study day 1, 3, and 7, and was also tested pre-dosing on day 7. Statistical analysis was performed using a 1-way ANOVA with Tukey post-test. A p-value below 0.05 was considered statistically significant. Control animals stimulated with CFA but treated with only vehicle had high sensitivity to mechanical stimulation compared to normal control animals.
as §3, §4

MRC-5 cells = test: TGFβ-stimulated αSMA expression in MRC-5 cells (HTRF); assay type: cell-based; parameters: key to Significant reduction in αSMA via HTRF compared to TGFβ alone: NS = no statistically significant change in aSMA expression; + = p < 0.05; ++ = p < 0.01; +++ = p < 0.005; ++++ = p < 0.001; settings: for Significant reduction in αSMA via HTRF compared to TGFβ alone: TGFβ 1 ng/ml, HGF 0.01 ng/ml, 48 h
Description: In this study, pulmonary-derived immortalized fibroblasts, MRC-5 cells, were cultured as a model of the early transition to fibrosis, and αSMA expression was measured using an immunodetection system driven by homogenous time-resolved fluorescence (HTRF) technology. This detection system produces a fluorescent signal in the presence of αSMA in cell lysates. Cells were grown to confluence in 96-well culture plates in complete media, and then transitioned to serum-free media for 2 hours. Next TGFβ (final 1 ng/ml in serum-free media) was added to the cells to stimulate the fibrotic transition. After 2 hours, media containing either HGF or HGF combined with one of the compounds was added to the cells. After incubation for 48 hours, cells were lysed and processed for αSMA HTRF to detect the levels of αSMA expression and compared to TGFβ-stimulated cultures. Statistical analysis consisted of 1-way ANOVA with a Dunnett's multiple comparison's post-test.

CFA-stimulated rats [3] = test: CFA inflammatory pain model, thermal hyperalgesia (Hargreaves method); assay type: in vivo; parameters: key to Thermal Hyperalgesia, change in sensitivity compared to CFA alone: NS = no statistically significant change in sensitivity compared to CFA alone; + = statistically significant change in sensitivity compared to CFA alone, p < 0.05; settings: 0.025 mg/kg PO daily; Day 3, 1 h post-dose
[4] = 0.025 mg/kg PO daily, Day 1, 1 h post-dose
[5] = 0.025 mg/kg PO daily, Day 7 post-dose
[6] = 0.025 mg/kg PO daily, Day 7 pre-dose
[7] = 0.1 mg/kg PO daily, Day 1, 1 h post-dose
[8] = 0.1 mg/kg PO daily, Day 3, 1 h post-dose
[9] = 0.1 mg/kg PO daily, Day 7 post-dose
[10] = 0.1 mg/kg PO daily, Day 7 pre-dose
[11] = 1 mg/kg PO daily, Day 1, 1 h post-dose
[12] = 1 mg/kg PO daily, Day 3, 1 h post-dose
[13] = 1 mg/kg PO daily, Day 7 post-dose
[14] = 1 mg/kg PO daily, Day 7 pre-dose

Compound: CCC(C)CN1CC2N(C(=O)c3ccc(OC(F)F)cc3)CCC(=O)N2[C@@H](C)C1=O (some centres unmarked) [Compound 2a]
- Thermal Hyperalgesia, change in sensitivity compared to CFA alone (CFA-stimulated rats [1]; [4]): NS
- Thermal Hyperalgesia, change in sensitivity compared to CFA alone (CFA-stimulated rats [1]; [5]): NS
- Thermal Hyperalgesia, change in sensitivity compared to CFA alone (CFA-stimulated rats [1]; [6]): NS
- Thermal Hyperalgesia, change in sensitivity compared to CFA alone (CFA-stimulated rats [1]; [7]): NS
- Thermal Hyperalgesia, change in sensitivity compared to CFA alone (CFA-stimulated rats [1]; [8]): NS
- Thermal Hyperalgesia, change in sensitivity compared to CFA alone (CFA-stimulated rats [1]; [9]): NS
- Thermal Hyperalgesia, change in sensitivity compared to CFA alone (CFA-stimulated rats [1]; [10]): NS
- Thermal Hyperalgesia, change in sensitivity compared to CFA alone (CFA-stimulated rats [1]; [11]): NS
- Thermal Hyperalgesia, change in sensitivity compared to CFA alone (CFA-stimulated rats [1]; [12]): + (+ = statistically significant change in sensitivity compared to CFA alone, p < 0.05)
- Thermal Hyperalgesia, change in sensitivity compared to CFA alone (CFA-stimulated rats [1]; [13]): NS
- Thermal Hyperalgesia, change in sensitivity compared to CFA alone (CFA-stimulated rats [1]; [14]): + (+ = statistically significant change in sensitivity compared to CFA alone, p < 0.05)
- thermal sensitivity (paw withdrawal latency) (CFA-stimulated rats [1]; 1 mg/kg, day 3 and pre-dose testing on day 7): reduced thermal sensitivity
- Mechanical Allodynia, change in sensitivity compared to CFA alone (CFA-stimulated rats [2]; [4]): NS
- Mechanical Allodynia, change in sensitivity compared to CFA alone (CFA-stimulated rats [2]; 0.025 mg/kg PO daily, Day 3, 1 h post-dose): NS
- Mechanical Allodynia, change in sensitivity compared to CFA alone (CFA-stimulated rats [2]; [5]): NS
- Mechanical Allodynia, change in sensitivity compared to CFA alone (CFA-stimulated rats [2]; [6]): NS
- Mechanical Allodynia, change in sensitivity compared to CFA alone (CFA-stimulated rats [2]; [7]): NS
- Mechanical Allodynia, change in sensitivity compared to CFA alone (CFA-stimulated rats [2]; [8]): NS
- Mechanical Allodynia, change in sensitivity compared to CFA alone (CFA-stimulated rats [2]; [9]): NS
- Mechanical Allodynia, change in sensitivity compared to CFA alone (CFA-stimulated rats [2]; [10]): NS
- Mechanical Allodynia, change in sensitivity compared to CFA alone (CFA-stimulated rats [2]; [11]): NS
- Mechanical Allodynia, change in sensitivity compared to CFA alone (CFA-stimulated rats [2]; [12]): NS
- Mechanical Allodynia, change in sensitivity compared to CFA alone (CFA-stimulated rats [2]; [13]): + (+ = statistically significant change in sensitivity compared to CFA alone, p < 0.05)
- Mechanical Allodynia, change in sensitivity compared to CFA alone (CFA-stimulated rats [2]; [14]): NS
- mechanical allodynia (paw withdrawal threshold) (CFA-stimulated rats [2]; 1 mg/kg, study day 7, post-dose testing): reduced mechanical allodynia
- αSMA expression (MRC-5 cells; 1 uM, combined with 0.01 ng/ml HGF): significantly reduced αSMA
- Significant reduction in αSMA via HTRF compared to TGFβ alone (MRC-5 cells; test compound 1 nM): NS
- Significant reduction in αSMA via HTRF compared to TGFβ alone (MRC-5 cells; test compound 1 μM): ++++ (++++ = p < 0.001)
- Thermal Hyperalgesia, change in sensitivity compared to CFA alone (CFA-stimulated rats [3]): NS
